Test: chemical cleavage by palladium-catalysed hydrogenolysis
Conditions: heterogenous catalyst, palladium on activated carbon (10 wt. %), hydrogen, ethanol, room temperature; TLC/HPLC
Protocol: Chemical Cleavage Using Heterogenous Palladium Catalyst: To a solution of 5-(benzyloxy)methyl-2′-deoxyuridine (29 mg, 0.082 mmol) in absolute ethanol (2 mL) under a nitrogen atmosphere was added 10 mg of palladium on activated carbon (10 wt. %, 10 mg) (CAUTION: flammable solid! Ensure handling in oxygen-free atmosphere). The mixture was flushed with hydrogen gas and stirred at room temperature for 30 minutes while being monitored by TLC every five minutes. The mixture was filtered, concentrated under reduced pressure, and dried under vacuum to yield thymidine (18 mg, 88%) that was identified by comparison to the authentic sample (TLC and ^1H NMR).
Chemical Cleavage Using Homogenous Palladium Catalyst: To a solution of 5-(benzyloxy)methyl-2′-deoxyuridine (3.48 mg, 0.01 mmol) in absolute ethanol (0.1 mL) under a nitrogen atmosphere a solution of sodium tetrachloropalladate (II) (0.6 mg, 0.002 mmol) in absolute ethanol (0.9 mL) was added. The mixture was flushed with hydrogen gas and stirred at room temperature while being monitored by TLC every five minutes. After 20 minutes TLC indicated complete disappearance of starting material. The sole cleavage product was identified to be thymidine by comparison to the authentic sample on TLC.
(§1) Chemical Cleavage Using Heterogenous Palladium Catalyst: To a solution of 5-(2-isopropylbenzyloxy)methyl-2′-deoxyuridine in absolute ethanol (10 mM, 1 mL) under a nitrogen atmosphere was added of palladium on activated carbon (10 wt. %, 2 mg) (CAUTION: flammable solid! Ensure handling in oxygen-free atmosphere). The mixture was flushed with hydrogen gas and stirred at room temperature for five minutes while being monitored by TLC every one minute. After five minutes TLC indicated complete disappearance of starting material. The sole cleavage product was identified to be thymidine by comparison to the authentic sample on TLC.
as §1, with “To” for “To a”, “5-(2-phenylbenzyloxy)methyl-2′-deoxyuridine” for “5-(2-isopropylbenzyloxy)methyl-2′-deoxyuridine”, “added” for “added of”, “1” for “one”
as §1, with “5-(2,6-dimethylbenzyloxy)methyl-2′-deoxyuridine” for “5-(2-isopropylbenzyloxy)methyl-2′-deoxyuridine”, “added” for “added of”, “1” for “one”
To a solution of 5-benzyloxy-2′-deoxyuridine (10 mg) in ethanol (1 mL) was added Pd/C (10%, 10 mg), and the mixture was stirred for five minutes. Hydrogen was introduced to the system via a balloon and the reaction mixture was stirred at room temperature. Aliquots (5 μL) were taken out from the reaction mixture at various time point intervals and were analyzed by thin layer chromatography and HPLC. Complete cleavage to thymidine was observed after ten minutes at room temperature (Scheme 42 and FIG. 4). The intermediate of the cleavage was identified to be 5-hydroxymethyl-dU generated from initial removal of benzyl group, and HOMedU was further reduced to thymidine. […]

Structure (SMILES)	time to complete cleavage to thymidine
O=c1[nH]c(=O)n([C@H]2C[C@H](O)[C@@H](CO)O2)cc1COCc1ccccc1-c1ccccc1 [5-(2-phenylbenzyloxy)methyl-2′-deoxyuridine]	five
Cc1cccc(C)c1COCc1cn([C@H]2C[C@H](O)[C@@H](CO)O2)c(=O)[nH]c1=O [5-(2,6-dimethylbenzyloxy)methyl-2′-deoxyuridine]	five
CC(C)c1ccccc1COCc1cn([C@H]2C[C@H](O)[C@@H](CO)O2)c(=O)[nH]c1=O [5-(2-isopropylbenzyloxy)methyl-2′-deoxyuridine]	five
CC(C)C(OCc1cn([C@H]2C[C@H](O)[C@@H](CO)O2)c(=O)[nH]c1=O)c1ccccc1 (stereo partly drawn) [5-(1-phenyl-2-methyl-propyloxy)methyl-2′-deoxyuridine]	240 min
O=c1[nH]c(=O)n([C@H]2C[C@H](O)[C@@H](CO)O2)cc1COCc1ccccc1 [5-(benzyloxy)methyl-2′-deoxyuridine]	ten

Same assay, conditions: homogenous catalyst, sodium tetrachloropalladate (II), hydrogen, ethanol, room temperature; TLC

Structure (SMILES)	time to complete disappearance of starting material (cleavage to thymidine) [min]
O=c1[nH]c(=O)n([C@H]2C[C@H](O)[C@@H](CO)O2)cc1COCc1ccccc1 [5-(benzyloxy)methyl-2′-deoxyuridine]	20

Reference: US9200319B2, “Nucleotides and nucleosides and methods for their use in DNA sequencing” (Lasergen, Inc., priority 2008, dated 2015)
